Reference: patent US5008416A, “Organogermanium compound, process for the preparation of same as well as use thereof” (Sanwa Kagaku Kenkyusho Co., Ltd., priority 1989, dated 1991)

Experiments:
NZB/WF1 mice = assay: Influence on antibody production in NZB/WF1 mice (Pharmacological Experiment 2); assay type: in vivo, mouse (NZB/WF1 female); conditions: for Number of PFC: 3 times, mean ± standard error, n = 5, (*) significant vs Control
Description: Influence of the organogermanium compound on antibody production is checked with use of NZB/WF1 mice who generate an autoimmune disease due to polyclonal activation of B cells, caused by functional reduction of suppresser T cell activities.
NZB/WF1 female mice (age of 11 weeks) were classified into Control group and Test groups (5 mice for each group), and 2×10^8 cells of SRBC were injected in a tail vein of each mouse for sensitization.
To the mice in each Test group, the organogermanium compound (Example 4) dissolved in 4% bovine serum albumin solution was orally administered in a dose of 1.0 or 10.0 mg/kg/day at 3 time, namely the day before, just after and the day after the sensitization.
After 4 days from the sensitization, spleen was removed from each mouse and number of PFC in 10^6 spleen cells was measured, as an index of the antibody production in the NZB/WF1 mice.

[1] = system: Influenza virus (A/PR/S strain); assay: Anti-virus effect, influenza virus infection model of mouse (Pharmacological Experiment 9); assay type: in vivo, mouse (BALB/c male); conditions: for Ratio of survival / Average life: 6 days; for Ratio of survival: 20 days from infection
Description: An antiviral effect of the compound according to the invention is investigated with an experimental influenza virus infection model of mouse.
Influenza virus (A/PR/S strain) was inoculated into a trachea of BALB/c male mice at 9.0 PFU/mouse. The organogermanium compound (Example 4) dissolved in 4% bovine serum albumin solution was orally administered at the dose of 0.1, 1.0 and 10.0 mg/kg once a day for 6 days from the day just after the infection to the 5th day therefrom.
A mortality of the mice was observed over 20 days from the virus infection.

tumor bearing mice [2] = assay: Influence on antibody production in tumor bearing mice (Pharmacological Experiment 1); assay type: in vivo, mouse (ICR male); conditions: for Number of PFC: 5 days, mean ± standard error, n = 7
Description: Influence of the organogermanium compound on antibody production ability is checked with use of tumor bearing mice, as experimental animals reduced in their immunity response.
Tumor bearing mice were prepared by implanting 2×10^6 cells of mouse tumor cell (Sarcoma 180) under a skin of each ICR male mouse (age of 6 weeks) to form a solid tumor.
The organogermanium compound (Production Example 4) dissolved in 4% bovine serum albumin solution was orally administered to the tumor bearing mice over 5 days after lapsed 9 days from the implantation of the tumor cells, by a dose of 0.1, 1.0 or 10.0 mg/kg/day.
After lapsed 14 days from the implantation, 2×10^8 cells of sheep red blood cells (SRBC) were injected in a tail vein of the mice for sensitization. After 4 days from the sensitization, spleen was removed and number of PFC in 10^6 spleen cells was measured, as an index of the antibody production in the tumor bearing mice.

normal mice = assay: Influence on delayed type hypersensitivity in normal mice (Pharmacological Experiment 4); assay type: in vivo, mouse (ICR male); conditions: for Food pad swelling: 24 hours, mean ± standard error, n = 10
Description: Influence of the organogermanium compound on the DTH response of normal mice is investigated.
Normal ICR male mice (age of 8 weeks) were immunized with 10^6 cells of SRBC by intravenous route. On 4 days after immunization, the organogermanium compound (Example 4) dissolved in 4% bovine serum albumin was orally administered at the dose of 0.1, 1.0 and 10.0 mg/kg. Just after the treatment with the compound, mice were challenged to intracutaneus injection of 2×10^8 cells of SRBC to hind food pad.
After 24 hours from the injection, the swelling of the foot pad was observed by a stereoscopic microscope.

tumor bearing mice [3] = assay: Influence on delayed type hypersensitivity in tumor bearing mice (Pharmacological Experiment 3); assay type: in vivo, mouse (ICR male); conditions: for Foot pad swelling: 24 hours, mean ± standard error, n = 10
Description: To investigate the effect of the organogermanium compound on the cellular immunity, we employed the delayed type hypersensitivity (DTH) of mice. Tumor bearing mice were used as experimental animals with reduced immunity and effect of the compound on the reduced DTH reaction was assayed.
Sarcoma 180 cells (10^6 cells) were intraperitoneally implanted to ICR male mice (age of 8 weeks) and after 3 hours from the implantation, 10^6 cells of SRBC were injected by intravenous route. Four days later, 2×10^8 cells of SRBC were intracutaneus injection to hind foot pad. After 24 hours from the injection, the swelling of the foot pad was observed by stereoscopic microscope.
To the mice in each test group, the organogermanium compound (Example 4) dissolved in 4% bovine serum albumin was orally administered at the time 4 days before the immunization at the dose of 0.1, 1.0 and 10.0 mg/kg.

[4] = system: chronic liver injury induced by carbon tetrachloride (serum transaminases); assay: Action to chronic liver injury induced by carbon tetrachloride (Pharmacological Experiment 11); assay type: in vivo, rat (Wister male); conditions: for s-GOT / s-GPT: 10 weeks every other day, mean ± standard error, n = 10
Description: An action of the organogermanium compound of the invention to a chronic liver injury to be induced by carbon tetrachloride, as an experimental model for liver injury is checked, through measurement of serum transaminases, as indexes.
To Wister male rats (n=10 for each group), carbon tetrachloride was intraperitoneally administered at the dose of 480 mg/kg at 2 times by each week for 10 weeks to induce a chronic liver injury.
To the […] in each Test group, the compound according to the invention (Example 4) dissolved in 4% bovine serum albumin solution was orally administered at the dose of 0.1, 1.0 and 10.0 mg/kg/day over 10 weeks in every other day.
After having lapsed 2 days from the final administration of carbon tetrachloride, a blood letting was carried out to measure GOT and GPT values in serum.

[5] = 1.0 mg/kg/day orally, (*) p < 0.05 vs Control

## Sodium 2-oxygermylethanesulfonate polymer [Example 4]
NZB/WF1 mice; 1.0 mg/kg/day orally
  Number of PFC: 3511 ± 302 PFC in 10^6 spleen cells
NZB/WF1 mice; 10.0 mg/kg/day orally
  Number of PFC: 3800 ± 360 PFC in 10^6 spleen cells
NZB/WF1 mice; treatment groups, 1.0 or 10.0 mg/kg/day orally
  Number of PFC (result in words): the number of PFC was significantly reduced
[1]; 0.1 mg/kg orally once a day
  Ratio of survival: 0/10
[1]; 0.1 mg/kg orally once a day, (*) p < 0.05 vs Control
  Average life: 10.0 days
[1]; 1.0 mg/kg orally once a day
  Ratio of survival: 4/10
[1]; 1.0 mg/kg orally once a day, (***) p < 0.001 vs Control
  Average life: 15.2 days
[1]; 1.0 mg/kg orally, 20 days from the infection
  Mice alive at end of test period: 4 mice
[1]; 10.0 mg/kg orally once a day
  Ratio of survival: 3/10
[1]; 10.0 mg/kg orally once a day, (**) p < 0.01 vs Control
  Average life: 13.7 days
[1]; each of Testing groups, 0.1, 1.0 and 10.0 mg/kg orally
  Average life vs Control group (result in words): a significant difference has been recognized
Tumor bearing mice [2]; 0.1 mg/kg/day orally, (*) p < 0.05 vs tumor bearing
  Number of PFC: 745 ± 66 PFC in 10^6 spleen cells
Tumor bearing mice [2]; 1.0 mg/kg/day orally
  Number of PFC: 948 ± 195 PFC in 10^6 spleen cells
Tumor bearing mice [2]; 10.0 mg/kg/day orally, (***) p < 0.001 vs tumor bearing
  Number of PFC: 1071 ± 89 PFC in 10^6 spleen cells
Tumor bearing mice [2]; 0.1-10.0 mg/kg/day orally, depending on dosing amount
  Antibody production (result in words): the reduced antibody production due to generation of the tumor increased to a normal level
Normal mice; 0.1 mg/kg orally, (**) p < 0.01 vs Control
  Food pad swelling: 70.9 ± 9.1 x 0.01 mm
Normal mice; 1.0 mg/kg orally, (***) p < 0.001 vs Control
  Food pad swelling: 59.0 ± 6.6 x 0.01 mm
Normal mice; 10.0 mg/kg orally, (*) p < 0.05 vs Control
  Food pad swelling: 86.9 ± 10.2 x 0.01 mm
Normal mice; 0.1, 1.0 and 10.0 mg/kg orally
  DTH response of normal mice (result in words): significantly reduced the DTH response of normal mice
Tumor bearing mice [3]; 0.1 mg/kg orally
  Foot pad swelling: 66.8 ± 7.5 ×0.01 mm
Tumor bearing mice [3]; 1.0 mg/kg orally, (***) p < 0.001 vs tumor bearing
  Foot pad swelling: 85.0 ± 5.9 ×0.01 mm
Tumor bearing mice [3]; 10.0 mg/kg orally, (***) p < 0.001 vs tumor bearing
  Foot pad swelling: 74.3 ± 4.9 ×0.01 mm
Tumor bearing mice [3]; 0.1, 1.0 and 10.0 mg/kg orally
  DTH response of tumor bearing mice (result in words): significantly restored the reduced DTH response to normal level
[4]; 0.1 mg/kg/day orally
  s-GOT: 1200 ± 180
  s-GPT: 1005 ± 97 Karmen Unit
[4]; [5]
  s-GOT: 1054 ± 140
  s-GPT: 940 ± 83 Karmen Unit
[4]; 10.0 mg/kg/day orally
  s-GPT: 1086 ± 112 Karmen Unit
[4]; 10.0 mg/kg/day orally, (*) p < 0.05 vs Control
  s-GOT: 1020 ± 164
[4]; by the dose of 1.0 mg/kg orally
  GOT and GPT values (result in words): noticeably decreasing GOT and GPT values
